ChEMBL document CHEMBL1157435, “Synthesis of 3',4'-epoxynoraristeromycin analogs for molecular labeling probe of S-adenosyl-l-homocysteine hydrolase” (Bioorg Med Chem, 2008)
Activity calls are given as the source filed them. The rule behind the calls is not given here.

Experiments:
Plasmodium falciparum = assay: (§1) Inhibition of Plasmodium falciparum SAHH
Adenosylhomocysteinase = Adenosylhomocysteinase (Homo sapiens, UniProt P23526); assay: Inhibition of human SAHH
[1] = as §1

Nc1ncnc2c1ncn2[C@@H]1C[C@H]2O[C@H]2[C@H]1O
Activity (Plasmodium falciparum): inactive
Ki (Adenosylhomocysteinase): 12.4 µM
Kinact (Adenosylhomocysteinase): 0.552 min⁻¹

Nc1ncnc2c1ncn2C[C@H](O)[C@H](O)C=O
Kinact (Adenosylhomocysteinase): 0.09 min⁻¹

Nc1nc(F)nc2c1ncn2[C@@H]1C[C@H]2O[C@H]2[C@H]1O
Kinact (Plasmodium falciparum): 0.099 min⁻¹
Ki [1]: 14.3 µM
Ki (Adenosylhomocysteinase): 20.3 µM
Kinact (Adenosylhomocysteinase): 0.133 min⁻¹
